Test results taken from patent USRE37781E1, “Substituted cyclic carbonyls and derivatives thereof useful as retroviral protease inhibitors” (DuPont Pharmaceuticals Company, priority 1991, dated 2002).

These compounds were tested against single-chain tethered dimer of HIV protease (Human immunodeficiency virus 1, UniProt P04585) (assay: biochemical). Conditions: HIV protease inhibition, HPLC method; Table 2d; read-out: HPLC K1.
Type: biochemical
Design: fused on or other part: A second copy of the same protease unit is joined to the first by a short peptide tether, giving one polypeptide
Method: HIV Protease Inhibition Assay—HPLC Method
Active protease was prepared as described therein by extraction with 67% acetic acid, dilution 33-fold with water, dialysis against water and then against a “refolding buffer” consisting of 20 mM MES, 1 mM dithiothreitol and 10% glycerol. Protease was stored as a stock preparation at 10 uM in refolding buffer.
Substrate: Peptide of sequence: aminobenzoyl-Ala-Thr-His-Gln-Val-Tyr-Phe(NO2)-Val-Arg-Lys-Ala containing p-nitrophenylalanine, was prepared by solid phase synthesis as previously described Cheng et al., op.cit. Stock solutions of 2 mM substrate were prepared in DMSO.
Inhibitory compounds were dissolved in sufficient DMSO to make 3 mM stock solutions. All further dilutions were prepared in “assay buffer”: 1M NaCl, 50 mM MES, pH 5.5, 1 mM EDTA, 1 mM DTT, […] glycerol.
Enzyme reaction: In a 2 ml screw-cap centrifuge tube were added 50 ul protease (final concentration 0.25 nM) and 0.1 ml inhibitory compound (final concentration […]). After 15 min preincubation at room temperature, the reaction was started with the addition of 0.05 ml substrate (final concentration 5 uM). Incubation was carried out at 30 C. for 1 hr. The reaction was stopped with 1 ml 0.1M ammonium hydroxide.
HPLC measurement of product formation: The product (aminobenzoyl-Ala-Thr-His-Gln-Val-Tyr) was separated from substrate on a Pharmacia MonoQ anion exchange column. The injection volume was 0.2 ml. The mobile phases were: A (20 mM trisHCl, pH 9.0, 0.02% sodium Azide, 10% acetonitrile), B (20 mM tris HCl, pH 9.0, 0.02% sodium azide, 0.5M ammonium formate, 10% acetonitrile). The mobile phases were pumped at 1 ml/min, with a gradient from 0 to 30% B in 5 min, 100% B for 4 min to wash the column, and a re-equilibration for 4 min. The retention time of the product was 3.6 min. Detection with a Shimadzu model RF535 fluorescence monitor was at 330 nm (excitation) and 430 (emission).

SMILES | Ki
O=C1N(Cc2coc(CO)c2)C(Cc2ccccc2)C(O)C(O)C(Cc2ccccc2)N1Cc1coc(CO)c1 (centres unmarked) [Example 15FP] | < 10 nM
O=C1NC(Cc2ccccc2)C(O)C(O)C(Cc2ccccc2)N1Cc1ccco1 (centres unmarked) [Example 15FV] | < 10 nM

Same assay, conditions: Table 2e; read-out: K4 HPLC

SMILES | Ki
O=C1N(CC2CC2)C(Cc2ccc3ccccc3c2)C(O)C(O)C(Cc2ccc3ccccc3c2)N1CC1CC1 (centres unmarked) [16L] | < 10 nM
O=C1N(CC2CC2)C(Cc2cccs2)C(O)C(O)C(Cc2cccs2)N1CC1CC1 (centres unmarked) [16O] | < 10 nM
NC(=NO)c1cccc(CN2C(=O)N(Cc3cccc(C(N)=NO)c3)C(Cc3cccs3)C(O)C(O)C2Cc2cccs2)c1 (centres unmarked) [16P] | < 10 nM
CSCCC1C(O)C(O)C(CCSC)N(Cc2ccccc2)C(=O)N1Cc1ccccc1 (centres unmarked) [Example 16AA] | > 1000 nM
CSCCC1C(O)C(O)C(CCSC)N(CC2CC2)C(=O)N1CC1CC1 (centres unmarked) [Example 16AB] | > 1000 nM
CCCCC1C(O)C(O)C(CCCC)N(Cc2ccccc2)C(=O)N1Cc1ccccc1 (centres unmarked) [Example 16AG] | > 1000 nM
C=CCCC1C(O)C(O)C(CCC=C)N(Cc2ccccc2)C(=O)N1Cc1ccccc1 (centres unmarked) [Example 16AK] | > 1000 nM
C=CCCCC1C(O)C(O)C(CCCC=C)N(Cc2ccccc2)C(=O)N1Cc1ccccc1 (centres unmarked) [Example 16AL] | > 1000 nM
CCC(CC)CC1C(O)C(O)C(CC(CC)CC)N(Cc2ccccc2)C(=O)N1Cc1ccccc1 (centres unmarked) [Example 16AM] | 10 to 1000 nM
O=C1N(Cc2ccccc2)C(CCCCCO)C(O)C(O)C(CCCCCO)N1Cc1ccccc1 (centres unmarked) [Example 16AN] | > 1000 nM
O=C1N(Cc2ccccc2)C(CCCCO)C(O)C(O)C(CCCCO)N1Cc1ccccc1 (centres unmarked) [Example 16AO] | > 1000 nM
C=CCN1C(=O)N(CC=C)C(CCCCCCCC)C(O)C(O)C1CCCCCCCC (centres unmarked) [Example 16AP] | 10 to 1000 nM
C=CCN1C(=O)N(CC=C)C(CCCCCC)C(O)C(O)C1CCCCCC (centres unmarked) [Example 16AQ] | > 1000 nM
C=CCCCC1C(O)C(O)C(CCCC=C)N(CC=C)C(=O)N1CC=C (centres unmarked) [Example 16AR] | > 1000 nM
C=CCCC1C(O)C(O)C(CCC=C)N(CC=C)C(=O)N1CC=C (centres unmarked) [Example 16AS] | > 1000 nM
CCCCC1C(O)C(O)C(CCCC)N(Cc2ccc(CO)cc2)C(=O)N1Cc1ccc(CO)cc1 (centres unmarked) [Example 16AT] | 10 to 1000 nM

Same assay, conditions: Table 2i; read-out: HPLC Ki

SMILES | Ki
COc1ccc(CC2C(O)C(O)C(Cc3ccc(OC)cc3)N(CC3CC3)C(=O)N2CC2CC2)cc1 (centres unmarked) [20AF] | < 10 nM
COc1ccc(CC2C(O)C(O)C(Cc3ccc(OC)cc3)N(Cc3ccccc3)C(=O)N2Cc2ccccc2)cc1 (centres unmarked) [20AG] | < 10 nM
COc1ccc(CC2C(O)C(O)C(Cc3ccc(OC)cc3)N(Cc3ccc4ccccc4c3)C(=O)N2Cc2ccc3ccccc3c2)cc1 (centres unmarked) [20AH] | < 10 nM
COC(=O)c1ccc(CN2C(=O)N(Cc3ccc(C(=O)OC)cc3)C(Cc3ccc(OC)cc3)C(O)C(O)C2Cc2ccc(OC)cc2)cc1 (centres unmarked) [20AI] | > 1000 nM
COc1ccc(CC2C(O)C(O)C(Cc3ccc(OC)cc3)N(Cc3ccc(CO)cc3)C(=O)N2Cc2ccc(CO)cc2)cc1 (centres unmarked) [20AJ] | < 10 nM
O=C1N(Cc2ccccc2)[C@H](Cc2ccc(O)cc2)[C@H](O)[C@@H](O)[C@@H](Cc2ccc(O)cc2)N1Cc1ccccc1 [20AK] | < 10 nM
C=CCN1C(=O)N(CC=C)C(Cc2ccc(OC)cc2)C(O)C(O)C1Cc1ccc(OC)cc1 (centres unmarked) [20AL] | < 10 nM
O=C1N(Cc2ccccc2)C(Cc2ccc(OCCO)cc2)C(O)C(O)C(Cc2ccc(OCCO)cc2)N1Cc1ccccc1 (centres unmarked) [20AM] | < 10 nM
CCOC(=O)COc1cccc(CC2C(O)C(O)C(Cc3cccc(OCC(=O)OCC)c3)N(CC3CC3)C(=O)N2CC2CC2)c1 (centres unmarked) [20AV] | 10 to 1000 nM
O=C1N(Cc2ccc(CO)cc2)C(Cc2ccc(F)cc2)C(O)C(O)C(Cc2ccc(F)cc2)N1Cc1ccc(CO)cc1 (centres unmarked) [20I] | < 10 nM
CC(=O)c1ccc(CN2C(=O)N(Cc3ccc(C(C)=O)cc3)C(Cc3ccccc3)C(O)C(O)C2Cc2ccccc2)cc1 (centres unmarked) [20J] | 10 to 1000 nM

Same assay, conditions: Table 2m; read-out: HPLC Ki

SMILES | Ki
O=C(NCCN1CCOCC1)c1cccc(CN2C(Cc3ccccc3)C(O)C(O)C(Cc3ccccc3)N(Cc3cccc(C(=O)NCCN4CCOCC4)c3)S2(=O)=O)c1 (centres unmarked) [23Z] | 10 to 1000 nM

Same assay, conditions: Table 2d; HIV protease inhibition, HPLC method; read-out: HPLC K1

SMILES | Ki
O=C1N(Cc2cccc(-c3cc[nH]n3)c2)C(Cc2ccccc2)C(O)C(O)C(Cc2ccccc2)N1Cc1cccc(-c2cc[nH]n2)c1 (centres unmarked) [Example 15XO] | < 10 nM

Same assay, conditions: Table 2d; class symbols; read-out: HPLC K1

SMILES | Ki
O=C1N(CC2CC2CO)C(Cc2ccccc2)C(O)C(O)C(Cc2ccccc2)N1CC1CC1CO (centres unmarked) [Example 12L] | > 1000 nM
O=C1NC(Cc2ccccc2)C(O)C(O)C(Cc2ccccc2)N1CC1CC1CCO (centres unmarked) [Example 12Z] | 10 to 1000 nM
O=C1NC(Cc2ccccc2)C(O)C(O)C(Cc2ccccc2)N1CC1CC1CCCO (centres unmarked) [Example 13A] | 10 to 1000 nM
O=C1N(CC2CC2(c2ccccc2)c2ccccc2)C(Cc2ccccc2)C(O)C(O)C(Cc2ccccc2)N1CC1CC1(c1ccccc1)c1ccccc1 (centres unmarked) [Example 14F] | 10 to 1000 nM
O=C1N(CC2CC2c2ccccc2)C(Cc2ccccc2)C(O)C(O)C(Cc2ccccc2)N1CC1CC1c1ccccc1 (centres unmarked) [Example 14H] | 10 to 1000 nM
O=C1NC(Cc2ccccc2)C(O)C(O)C(Cc2ccccc2)N1CC1CC1c1ccccc1 (centres unmarked) [Example 14I] | 10 to 1000 nM
Cc1cncc(OCc2ccccc2)c1CN1C(=O)N(Cc2c(C)cncc2OCc2ccccc2)C(Cc2ccccc2)C(O)C(O)C1Cc1ccccc1 (centres unmarked) [Example 14J] | 10 to 1000 nM

Same assay, conditions: read-out: HPLC K1; HIV protease inhibition, HPLC method; Table 2d

SMILES | Ki
C=CC(=C)CN1C(=O)N(CC(=C)C=C)C(Cc2ccccc2)C(O)C(O)C1Cc1ccccc1 (centres unmarked) [Example 15FX] | 10 to 1000 nM

Same assay, conditions: read-out: HPLC K1; Table 2d; class symbols

SMILES | Ki
O=C1N(Cc2ccccc2)C(Cc2ccccc2)C(O)C(O)C(Cc2ccccc2)N1Cc1ccccc1 (centres unmarked) [Example 13Q] | > 1000 nM
O=C1N(Cc2ccccc2)C(Cc2ccccc2)C(O)C(O)C(Cc2ccccc2)N1Cc1ccccc1 (centres unmarked) [Example 13Y] | > 1000 nM
CCCCCC#CCN1C(=O)N(CC#CCCCCC)C(Cc2ccccc2)C(O)C(O)C1Cc1ccccc1 (centres unmarked) [Example 14E] | 10 to 1000 nM
O=C1N(c2ccccc2)C(Cc2ccccc2)C(O)C(O)C(Cc2ccccc2)N1c1ccccc1 (centres unmarked) [Example 14G] | 10 to 1000 nM

Same assay, conditions: read-out: HPLC Ki; Table 2i

SMILES | Ki
O=C1N(CC2CC2)C(Cc2ccc(F)cc2)C(O)C(O)C(Cc2ccc(F)cc2)N1CC1CC1 (centres unmarked) [20H] | < 10 nM

Same assay, conditions: read-out: HPLC Ki; Table 1d, lower part

SMILES | Ki
COCCOCO[C@@H]1C(=O)[C@@H](Cc2ccccc2)N(CC2CC2)C(=O)N(CC2CC2)[C@@H]1Cc1ccccc1 [Example 7AA] | > 1000 nM
O=C1N(CC2CC2)C(Cc2ccccc2)C(=NO)C(O)C(Cc2ccccc2)N1CC1CC1 (centres unmarked) [Example 7AB] | > 1000 nM
CON=C1C(O)C(Cc2ccccc2)N(CC2CC2)C(=O)N(CC2CC2)C1Cc1ccccc1 (centres unmarked) [Example 7AC] | 10 to 1000 nM
O=C1N(CC2CC2)C(Cc2ccccc2)c2ncoc2C(Cc2ccccc2)N1CC1CC1 (centres unmarked) [Example 7AD] | 10 to 1000 nM
COC1C(O)C(Cc2ccccc2)N(CC2CC2)C(=O)N(CC2CC2)C1Cc1ccccc1 (centres unmarked) [Example 7AE] | 10 to 1000 nM
COC1C(OC)C(Cc2ccccc2)N(CC2CC2)C(=O)N(CC2CC2)C1Cc1ccccc1 (centres unmarked) [Example 7AF] | > 1000 nM
O=C1N(CC2CC2)C(Cc2ccccc2)C(OCc2ccccc2)C(OCc2ccccc2)C(Cc2ccccc2)N1CC1CC1 (centres unmarked) [Example 7AG] | > 1000 nM
O=C1N(CC2CC2)C(Cc2ccccc2)C(O)C(OCc2ccccc2)C(Cc2ccccc2)N1CC1CC1 (centres unmarked) [Example 7AH] | > 1000 nM
C=CCOC1C(O)C(Cc2ccccc2)N(CC2CC2)C(=O)N(CC2CC2)C1Cc1ccccc1 (centres unmarked) [Example 7AJ] | 10 to 1000 nM

Same assay, conditions: read-out: K4 HPLC; Table 2e

SMILES | Ki
CC(C)CC1C(O)C(O)C(CC(C)C)N(Cc2ccccc2)C(=O)N1Cc1ccccc1 (centres unmarked) [Example 16AD] | < 10 nM
CCCCN1C(=O)N(CCCC)C(CC(C)C)C(O)C(O)C1CC(C)C (centres unmarked) [Example 16AE] | 10 to 1000 nM
O=C1N(Cc2ccccc2)C(CCc2ccccc2)C(O)C(O)C(CCc2ccccc2)N1Cc1ccccc1 (centres unmarked) [Example 16A] | 10 to 1000 nM
C=CCN1C(=O)N(CC=C)C(CCc2ccccc2)C(O)C(O)C1CCc1ccccc1 (centres unmarked) [Example 16B] | > 1000 nM
C=CCN1C(=O)N(CC=C)C(C(C)C)C(O)C(O)C1C(C)C (centres unmarked) [Example 16C] | 10 to 1000 nM
CC(C)C1C(O)C(O)C(C(C)C)N(CC2CC2)C(=O)N1CC1CC1 (centres unmarked) [Example 16D] | 10 to 1000 nM
C=CCN1C(=O)N(CC=C)C(C)C(O)C(O)C1C (centres unmarked) [Example 16E] | > 1000 nM

Same assay, conditions: read-out: Ki (HPLC); Table 1e, cells marked (HPLC)

SMILES | Ki
O=C1N(Cc2ccc(CCl)cc2)[C@H](CCc2ccccc2)[C@@H](O)[C@@H](Cc2ccccc2)N1Cc1ccc(CCl)cc1 [Example 8J] | 10 to 1000 nM
O=C1N(Cc2ccc(CO)cc2)[C@H](CCc2ccccc2)[C@@H](O)[C@@H](Cc2ccccc2)N1Cc1ccc(CO)cc1 [Example 8M] | < 10 nM
